From US12435061B2 (priority 2020, dated 2025)
≈ marks a conversion by molar mass, not a printed value. Where “and” joins values, the source holds several entries; their conditions need not be identical. Equal entries are not always repeated. Where two headings read alike, the source gives them in different places.

Key:
[1] = Aqueous solubility assay in Normal Ringer Solution; conditions: Normal Ringer Solution, saline or isotonic, kinetic from dmso stock
Protocol: Following vortex and incubation for a sufficient time (e.g. 40 minutes at room temperature), solutions were filtered, quenched with acetonitrile, and analyzed by Liquid Chromotography. Solubility Limits were determined by comparison to a standard curve.

[2] = Metabolic Stability assay, rat liver microsomes; type: in vitro ADME
Procedure, shortened: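 Test article at 1 μM starting concentration incubated with human or rat liver microsomes at 37 °C, with the reaction started by NADPH regeneration components. Aliquots were quenched in cold acetonitrile/MeOH/H2O at 0, 7, 15, 30 and 60 min and analysed by HPLC/MS/MS.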

[3] = Metabolic Stability assay, human liver microsomes; type: in vitro ADME
Protocol: Metabolic Stability assay: The metabolic stability was determined by adding compound dissolved in DMSO to human or rat, liver microsomes. Briefly, assays were run with a starting concentration of 1 μM test article. The reaction was started by addition of NADPH regeneration components at 37° C. at which time an aliquot was immediately quenched in ice-cold acetonitrile/MeOH/H2O solution. Reaction mixture was incubated at 37° C. on a shaker, and additional aliquots were taken at 7, 15, 30 and 60 minutes. Following quench and centrifugation, samples were analyzed on HPLC/MS/MS.

[4] = biological target: human hERG channels (Homo sapiens (Human), UniProt Q12809); experiment: hERG assay (patch clamp, CHO cells); type: cell-based
[5] = biological target: T1, hTRPV3 (Homo sapiens (Human), UniProt Q8NET8); experiment: Whole-cell patch clamp, hTRPV3 Phase 1 / Phase 2 currents; type: cell-based
Procedure, shortened: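 Whole-cell recordings on induced TRPV3 cells replated on coverslips, held at −40 mV with 400 ms ramps from −120 to +100 mV every 5 s; currents read at −80 and +80 mV. Ringer's external solution; current activated by heating to ≥28 °C or 20 μM 2-APB.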

[6] = biological target: T1, hTRPV3; experiment: hTRPV3 HAMA IC50 assay (Hamamatsu FDSS6000 calcium flux, TRex-293 cells); conditions: 5 min
Protocol: IC50s were calculated using CBIS from ChemInnovation (San Diego).

[7] = Phase 1 current, human TRPV3, read-out: hTRPV3 (nM) Phase 1
[8] = Phase 1 current, inward, whole-cell patch clamp, read-out: hTRPV3 Patch P1 Inwd

Sequence of human hERG channels (Q12809 whole entry): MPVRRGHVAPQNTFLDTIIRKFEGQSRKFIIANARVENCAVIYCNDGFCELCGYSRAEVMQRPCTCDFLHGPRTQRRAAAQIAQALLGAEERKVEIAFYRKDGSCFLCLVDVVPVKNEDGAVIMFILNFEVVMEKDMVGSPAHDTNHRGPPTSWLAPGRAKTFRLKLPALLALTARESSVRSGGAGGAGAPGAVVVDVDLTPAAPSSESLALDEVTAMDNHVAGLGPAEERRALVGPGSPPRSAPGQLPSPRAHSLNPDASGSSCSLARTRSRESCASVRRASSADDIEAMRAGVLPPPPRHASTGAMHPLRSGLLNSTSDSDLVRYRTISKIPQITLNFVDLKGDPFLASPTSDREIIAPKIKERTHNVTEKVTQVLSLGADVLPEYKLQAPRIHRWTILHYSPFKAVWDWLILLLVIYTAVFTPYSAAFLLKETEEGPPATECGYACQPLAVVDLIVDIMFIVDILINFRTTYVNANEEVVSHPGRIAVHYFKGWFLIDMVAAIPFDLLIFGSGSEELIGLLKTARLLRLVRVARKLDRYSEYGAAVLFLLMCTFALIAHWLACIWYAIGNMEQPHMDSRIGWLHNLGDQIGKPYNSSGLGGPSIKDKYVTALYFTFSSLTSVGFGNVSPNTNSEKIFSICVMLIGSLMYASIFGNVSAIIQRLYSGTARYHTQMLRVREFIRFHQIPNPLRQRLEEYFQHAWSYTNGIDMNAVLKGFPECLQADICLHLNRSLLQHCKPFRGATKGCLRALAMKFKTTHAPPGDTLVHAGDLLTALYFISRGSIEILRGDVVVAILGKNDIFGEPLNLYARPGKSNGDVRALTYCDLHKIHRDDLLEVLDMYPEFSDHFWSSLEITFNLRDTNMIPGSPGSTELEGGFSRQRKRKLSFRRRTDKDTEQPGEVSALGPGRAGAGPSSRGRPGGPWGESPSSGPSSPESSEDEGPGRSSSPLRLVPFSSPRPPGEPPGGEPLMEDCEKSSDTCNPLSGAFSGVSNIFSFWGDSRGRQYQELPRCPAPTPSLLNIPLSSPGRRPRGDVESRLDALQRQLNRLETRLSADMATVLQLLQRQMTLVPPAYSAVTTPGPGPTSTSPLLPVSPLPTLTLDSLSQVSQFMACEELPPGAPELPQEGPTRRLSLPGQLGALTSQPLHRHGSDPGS
T1 sequence (Q8NET8 whole entry): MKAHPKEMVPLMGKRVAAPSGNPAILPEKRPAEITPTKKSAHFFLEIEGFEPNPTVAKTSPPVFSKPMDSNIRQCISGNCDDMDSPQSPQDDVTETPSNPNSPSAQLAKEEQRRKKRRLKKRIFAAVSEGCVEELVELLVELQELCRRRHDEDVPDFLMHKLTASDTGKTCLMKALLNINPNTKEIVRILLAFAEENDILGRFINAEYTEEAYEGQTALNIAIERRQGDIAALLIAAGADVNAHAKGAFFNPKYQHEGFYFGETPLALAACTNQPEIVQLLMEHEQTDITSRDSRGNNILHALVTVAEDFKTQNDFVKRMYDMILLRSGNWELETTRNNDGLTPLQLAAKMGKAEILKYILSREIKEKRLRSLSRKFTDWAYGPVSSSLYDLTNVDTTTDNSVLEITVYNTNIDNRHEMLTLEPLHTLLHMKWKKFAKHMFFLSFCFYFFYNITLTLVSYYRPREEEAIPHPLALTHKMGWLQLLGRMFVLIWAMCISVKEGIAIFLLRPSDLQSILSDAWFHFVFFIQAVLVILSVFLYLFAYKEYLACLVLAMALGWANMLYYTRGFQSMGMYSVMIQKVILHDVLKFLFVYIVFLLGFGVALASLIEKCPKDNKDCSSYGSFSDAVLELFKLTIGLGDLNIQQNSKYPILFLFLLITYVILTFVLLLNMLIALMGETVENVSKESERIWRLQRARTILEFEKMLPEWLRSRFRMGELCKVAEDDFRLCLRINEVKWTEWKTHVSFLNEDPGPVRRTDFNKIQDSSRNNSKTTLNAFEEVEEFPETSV

SMILES | solubility at 40 min [1] [µM] | half-life at 1 μM ([2]; read-out: LM T1/2 (min) rat) [min] | half-life at 1 μM ([3]; read-out: LM T1/2 (min) human) [min] | IC50 ([4]; (M), read-out: hERG) [M] | IC50 ([4]; (PL), read-out: hERG (nM) (PL)) [M] | IC50 [5, 7] [nM] | IC50 [5, 8] [nM] | IC50 ([5]; hTRPV3 (nM) (Phase 1)) | IC50 ([5]; hTRPV3 Patch P2 Inwd (nM)) [nM] | IC50 ([5]; read-out: hTRPV3 (nM) (Phase 1)) | IC50 ([5]; read-out: hTRPV3 (nM) (Phase 2)) | hTRPV3 HAMA IC50 (nM) (5 min) [6] | half-life at 1 μM ([2]; read-out: LM T1/2 (min) (rat)) | half-life at 1 μM ([3]; read-out: LM T1/2 (min) (human))
O=C(c1ccc(F)cn1)N1CCC(c2ccc(-c3ccccc3C3CC3)cc2CO)C1 (stereo not drawn) [Compound 2-72, (3-(2′-cyclopropyl-3-(hydroxymethyl)biphenyl-4-yl)pyrrolidin-1-yl)(5-fluoropyridin-2-yl)methanone] | ~25.5 (≈ 10.6 µg/mL) | 31.3 | 17.5 | 9.24e-06 | 8.46e-06 | – | – | – | – | – | – | – | – | –
O=C(c1ccc(Cl)cn1)N1CCC(c2ccc(-c3ccccc3C3CC3)cc2CO)C1 (stereo not drawn) [Compound 2-56] | ~5.1 (≈ 2.21 µg/mL) | – | 24.6 | – | 7.29e-06 | 2.04 | < 10 | – | – | – | – | – | – | –
NC(=O)c1cc(C(F)(F)F)ccc1N1CC[C@H](Oc2ccc(C(F)(F)F)cn2)C1 [Compound 1-58, (S)-5-(trifluoromethyl)-2-(3-(5-(trifluoromethyl)pyridin-2-yloxy)pyrrolidin-1-yl)benzamide] | > 11.3 | – | – | – | – | – | – | 1250 nM and 1520 nM and > 3200 nM | 100 to 1000 | 1040 | 241 | no fit (5 min) | > 60 | > 60
O=C(c1ccc(C(F)(F)F)cn1)N1CCC(c2ccc(-c3ccccc3C3CC3)cc2CO)C1 (stereo not drawn) [Compound 2-58, (3-(2′-cyclopropyl-3-(hydroxymethyl)biphenyl-4-yl)pyrrolidin-1-yl)(5-(trifluoromethyl)pyridin-2-yl)methanone] | ~5.2 (≈ 2.43 µg/mL) | 47.9 | 54.6 | – | 1.5e-05 | 27.3 | 10 to 100 | – | – | – | – | – | – | –
CC(C)c1ccccc1-c1ccc(C2CCN(C(=O)c3cc(Cl)ccn3)C2)c(CO)c1 (stereo not drawn) [Compound 2-49, (4-chloropyridin-2-yl)(3-(3-(hydroxymethyl)-2′-isopropylbiphenyl-4-yl)pyrrolidin-1-yl)methanone] | > 12.8 | 20.6 | 12.2 | – | 6.97e-06 | 25.7 | 10 to 100 | – | – | – | – | – | – | –
CCc1cc(C)ccc1-c1ccc(C2CCN(C(=O)c3ccc(F)cn3)C2)c(CO)c1 (stereo not drawn) [Compound 2-62, (3-(2′-ethyl-3-(hydroxymethyl)-4′-methylbiphenyl-4-yl)pyrrolidin-1-yl)(5-fluoropyridin-2-yl)methanone] | > 12.1 | 14 | 14.9 | – | 1.77e-05 | 64.9 | 10 to 100 | – | – | – | – | – | – | –
